Assays:
human TTK = target: T1, human TTK (Homo sapiens, UniProt P33981); assay: TTK inhibition assay (indirect ELISA); assay type: biochemical; details: read-out: TTK IC50 Range
T1 construct: amino terminal GST fusion of full length human TTK; purchased Invitrogen
T1 sequence (P33981 1-857): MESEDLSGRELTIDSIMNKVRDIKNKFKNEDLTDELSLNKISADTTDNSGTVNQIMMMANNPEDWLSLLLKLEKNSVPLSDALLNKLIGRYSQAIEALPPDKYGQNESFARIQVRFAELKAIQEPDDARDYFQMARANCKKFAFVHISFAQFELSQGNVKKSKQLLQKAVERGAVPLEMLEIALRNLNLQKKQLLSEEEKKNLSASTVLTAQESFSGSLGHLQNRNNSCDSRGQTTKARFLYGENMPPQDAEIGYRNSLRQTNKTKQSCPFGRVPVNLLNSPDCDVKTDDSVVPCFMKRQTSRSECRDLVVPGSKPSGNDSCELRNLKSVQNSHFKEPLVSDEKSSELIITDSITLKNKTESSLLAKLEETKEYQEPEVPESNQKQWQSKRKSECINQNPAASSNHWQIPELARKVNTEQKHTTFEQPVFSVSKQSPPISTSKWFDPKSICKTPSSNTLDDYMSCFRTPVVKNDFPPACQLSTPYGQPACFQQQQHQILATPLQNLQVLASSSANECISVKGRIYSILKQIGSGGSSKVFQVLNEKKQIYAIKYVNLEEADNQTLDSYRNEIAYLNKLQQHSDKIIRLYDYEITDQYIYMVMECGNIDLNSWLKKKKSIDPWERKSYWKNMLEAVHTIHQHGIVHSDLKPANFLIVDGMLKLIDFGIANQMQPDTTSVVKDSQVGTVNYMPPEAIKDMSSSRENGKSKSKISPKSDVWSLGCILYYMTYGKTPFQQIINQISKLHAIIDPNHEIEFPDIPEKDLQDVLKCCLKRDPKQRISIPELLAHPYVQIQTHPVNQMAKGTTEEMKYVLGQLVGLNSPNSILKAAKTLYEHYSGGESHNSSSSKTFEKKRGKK

Breast cancer cells = assay: Cancer cell line growth inhibition (SRB assay); assay type: cell-based; details: Homo sapiens; MDA-MB-468; read-out: Cancer Cell Line GI50 Range MDA-MB-468
[1] = system: ovarian cancer cells (PA-1); assay: Cancer cell line growth inhibition (SRB assay); assay type: cell-based; details: Homo sapiens, PA-1; read-out: Cancer Cell Line GI50 Range PA-1
human PLK4 = target: T2, human PLK4 (Homo sapiens, UniProt O00444); assay: PLK4 inhibition assay (indirect ELISA); assay type: biochemical; details: 15 μM ATP
T2 construct: amino terminal GST fusion of residues 1-391 of human PLK4; made in house; host or cells: E. coli
T2 sequence (O00444 1-391): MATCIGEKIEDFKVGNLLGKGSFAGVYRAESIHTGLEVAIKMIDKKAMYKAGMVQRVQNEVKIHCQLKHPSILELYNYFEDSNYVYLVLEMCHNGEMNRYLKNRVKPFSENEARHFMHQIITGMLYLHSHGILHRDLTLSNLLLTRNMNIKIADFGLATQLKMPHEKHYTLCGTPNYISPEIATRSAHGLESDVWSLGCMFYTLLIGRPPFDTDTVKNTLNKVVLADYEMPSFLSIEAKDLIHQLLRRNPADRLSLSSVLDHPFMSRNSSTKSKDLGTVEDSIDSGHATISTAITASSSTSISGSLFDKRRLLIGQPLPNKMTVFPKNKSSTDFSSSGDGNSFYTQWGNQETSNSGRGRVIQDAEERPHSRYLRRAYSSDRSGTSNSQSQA
Summary of the method: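 Dephosphorylated GST-PLK4 (residues 1-391, E. coli; 4 nM) was preincubated 15 min with compound, then reacted 30 min with 15 μM ATP in HEPES pH 7.4, MgCl2, Brij 35 on MBP-coated plates. Phospho-MBP was detected by antibody/HRP ELISA at 450 nm; IC50 from 10-point titration by 4-parameter logistic fit, or single 10 μM % inhibition.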

Row | SMILES | IC50 (human TTK) [nM] | GI50 (Breast cancer cells) [nM] | GI50 [1] [nM] | IC50 (human PLK4) [nM]
1 | CC(C)C[C@@H](NC(=O)c1ccc2[nH]nc(-c3ccc(N4CCN(C5COC5)CC4)cc3)c2c1)c1ccccc1Cl [Example A300, (R)-N-(1-(2-chlorophenyl)-3-methylbutyl)-3-(4-(4-(oxetan-3-yl)piperazin-1-yl)phenyl)-1H-indazole-5-carboxamide] | < 100 | < 100 | < 100 | < 50
2 | CC(C)[C@H](NC(=O)c1ccc2[nH]nc(-c3ccc(OC4CC5CCC(C4)N5C4COC4)cc3)c2c1)c1ccccc1Cl (some centres unmarked) [Example A335] | < 100 | 100 to 500 | < 100 | < 50

Reference: patent US9580390B2, “Indazole compounds as kinase inhibitors and method of treating cancer with same” (University Health Network, priority 2011, dated 2017)
